Reference: patent US7361638B2, “Pharmaceutical combination for the treatment of tissue damage owing to an arterial irrigation defect” (Centro de Ingenieria Genetica y Biotecnologia, priority 2001, dated 2008)
Entries after “also recorded” stand apart in the source; their conditions may differ. Marks after values point to notes of the source that are not given here. Non-standard residues stand in square brackets, D forms with d. No end group written: not given here.

What was measured:
[1] = test system: rat model of renal bilateral ischemia/reperfusion; assay: Renal bilateral ischemia/reperfusion, first phase (1 hour ischemia, 3 hour reperfusion); format: in vivo, Wistar rats; details: 1 h ischemia, 3 h reperfusion; for Glomerular Filtration Rate / Renal Plasmatic Flow / Urine output during the reperfusion period: EGF 20 μg; for Glomerular Filtration Rate / Renal Plasmatic Flow: GHRP-6 50 μg, combination EGF 5 μg + GHRP-6 10 μg per rat i.p.; for Urine output during the reperfusion period: i.p. 30 min before ischemia, GHRP 50 μg, combination EGF 5 μg + GHRP-6 10 μg per rat, mean and SD; for Renal failure / oliguria, result in words: versus saline-treated ischemic controls
Protocol: The potential nephroprotective effects of each of the peptides alone or in combination was studied in a rat model of renal bilateral ischemia/reperfusion. In a first phase trial, a ischemia period of 1 hour followed by a 3 hour reperfusion period was established. Female Wistar rats (200-220 g) were randomly assigned to the following experimental groups (N=10):
Group II: Ischemic and normal saline solution 0.9%.
Group IV: Ischemic and GHRP −6-50 μg/rat.
All the treatments were intraperitoneally administered 30 minutes before ischemia.
(§1) Renal arteries were clamped with microvascular clamps (Moria, Fine Science Tools, USA) for 60 minutes. After 3 hours of reperfusion the animals were monitored for another 30 minutes to establish renal functioning.
(§2) Glomerular filtration rate (GFR) and the renal plasmatic flow (RPF) were studied using molecular weight markers as inulin and p-amino hypuric. Clearance coefficients were determined as follows:
Uv(m) maximal urine volume per minute. […]
(§3) A catheter was fixed in the urinary bladder and the urethra was clamped. The free end of the catheter was inserted in a graduated tube and the urine volume was collected during 10 minutes.
Renal tissue samples were homogenized in KCI/histidine (pH7.3) buffer and the supernatant was used to measure the activity of the enzymes PLA2, catalase, as the MDA reactive metabolite.
Renal tissue samples were fixed in 10% buffered formalin, paraffin embedded, H&E stained and studied by independent pathologists using the following criteria: number of collapsed glomeruli, cortical hemorrhage, medullar hemorrhage, severe tubular damage, and severe interstitial damage. […] GHRP-6 intervention increased urine formation 4 times as compared to saline treated animals, which argues in favor of renal functional protection.

[2] = test system: rat model of renal bilateral ischemia/reperfusion; assay: Renal ischemia/reperfusion, second phase (3 hours ischemia, similar reperfusion time); format: in vivo, Wistar rats; details: 3 h ischemia; for Urine output during the reperfusion period: EGF 20 μg, GHRP 50 μg, combination, mean and SD
Protocol: as §1, §2, §3
Renal tissue samples were fixed in 10% buffered formalin, paraffin embedded, H&E stained and studied by independent pathologists using the following criteria: number of collapsed glomeruli, cortical hemorrhage, medullar hemorrhage, severe tubular damage, and severe interstitial damage.
During a second phase study, a larger ischemia period was introduced which allowed for studying the effect of the peptide in a more practical model with respect to the clinical practice. Kidneys were exposed to a 3 hours ischemia period and a similar reperfusion time.

[3] = test system: Intestinal Ischemia/Reperfusion Model; assay: Intestinal ischemia/reperfusion model (2 hours ischemia, 3 hours reperfusion); format: in vivo, Sprague Dawley rats; details: 2 h ischemia, 3 h reperfusion
Protocol: Male Sprague Dawley (220-250 g) rats were randomly assigned to the following treatment groups: I: ischemia/normal saline. […] III: Ischemia/GHRP-6 100 μg/rat. IV: Ischemia/combination -EGF (5 μg)/GHRP-6 (2 μg)/rat. All the treatments were intraperitoneally administered 30 minutes prior to beginning the ischemia period. […] The artery was clamped for a period of 2 hours, thus provoking a severe ischemia time on the jejunum and ileum portions of the small intestine. Reperfusion was allowed for 3 hours. Rats were euthanized and subjected to complete autopsy. The small intestine was resected and the length of hemorrhagic mucosal and/or luminal damage was registered. Luminal content was flushed out with a standard volume of saline to determine the hemoglobin content. Intestinal mucosa was washed with warm normal saline, weighed and fragments used to determine total protein content by Lowry method. Other fragments were used for total DNA content and microscopic analysis. Villi/mucosal damage was microscopically analyzed as described by Chiu. This scale considers Grade 0 as intact mucosa progressing to Grade 5 as full-thickness denudation.

[4] = test system: Experimental Model of Multiple Organ Damage by Extensive Burns; assay: Multiple organ damage by extensive burns (25% body surface scald), intestinal regeneration; format: in vivo, Balb/c mice; details: for Final weight (body weight) / % Increase of body weight: 10th day following scalding; for Final weight (body weight): after 20 administrations, table prints EGF 0.01 μg, GHRP 0.01 μg, mean and SD, in g (unit assumed); for Crypts depth / No. of crypts in fission (×200) / Villous height / No. of metaphases per crypt (×200): day 10 post-scalding; for % Increase of body weight: initial to final weight; for No. of metaphases per crypt (×200): vincristine 1 mg/kg six hours prior to death
Protocol: The dorsal region of Balb/c mice (22-25 g) was depilated and subjected to hypodermic scalding involving a 25% of body surface area, by immersion in equilibrated water at 95-97° C. for 5 seconds. All the mice received 1.5 ml of normal saline solution as fluid resuscitation immediately after. This animal model had been previously established and calibrated in our laboratory, and is useful to our goals as extensive internal changes are steadily reproduced. On the next 24 hours the surviving mice were randomly assigned to the following groups: Reference. Sham burned mice receiving saline 0.9% (N=5). Scalded receiving only normal saline 0.9%. […] Scalded and treated with GHRP-6 (N=9; 0.1 μg GHRP-6/animal). Scalded, treated with the peptide combination (N=10). […] Administrations were done twice a day and until day 10 post-scalding. Once the treatments were completed, animals were weighed again and euthanized for necropsy and microscopic examination. Six hours prior to death, every mouse received an injection of vincristine (1 mg/kg) to arrest cells on metaphase. Intestines were resected, flushed and weighed. Fragments were collected for total DNA and protein content. Other fragments were formalin fixed and used for routine processing or intestinal microdissection of villi and crypts. Morphometric procedures on the microscopic slides were derived from the […] image processing system. The following parameters were considered in this study: Animal weight. Intestinal weight, protein and DNA content. Number of cells in metaphase per crypt. Number of branching crypts. Villous height. Crypts depth.

[5] = test system: gastric mucosa of animals exposed to a severe systemic stress; assay: Acute gastric stress damage model (cold swim and restraint); format: in vivo, OF-1 mice
Protocol: Adult, male OF-1 mice (20-23 g) were randomly assigned to receive GHRP-6 (0.1 μg/animal) or normal saline solution 0.9% (both i.p.). Ten to thirty minutes later animals were forced to swim in cold water for 30 minutes and later restrained for another 20 minute period at 4° C. Animals were thereafter anesthetized and euthanized for gastric mucosa inspection. Samples were fixed in 10% buffered formalin and H&E, and PAS stained for microscopic examination. Erosion, hemorrhage, and ulceration were the gross pathology criteria considered in the experiment (Playford RJ. Peptides and gastrointestinal mucosa integrity. Gut 1995, 37: 595-597). Microscopic ulceration was only considered when deeper than the first third of the glandular mucosa. Luminal bleeding was studied by measuring hemoglobin by the cyano metahemoglobin method (Reactivos Spinreact, Barcelona). Data were expressed in g/dL. All determinations were done in a blind fashion using a sham group.

[6] = test system: Intestinal Ischemia/Reperfusion Model; assay: Survival after intestinal ischemia/reperfusion, monitored for 96 hours; format: in vivo, Sprague Dawley rats; details: 96 hours of reperfusion; N = 10; EGF 500 μg, GHRP-6 100 μg, EGF 5 μg + GHRP-6 2 μg
Protocol: In order to fully elucidate the protective effect of the combination treatment in this model of intestinal ischemia/reperfusion, survival was monitored until 96 hours of reperfusion.
A second and independent experiment was conducted in order to learn if the combination stimulated animals' survival. Experimental methodology is as described above. All the rats received an intraperitoneal injection of lactated Ringer following wound closure. Animals were monitored for 96 hours once reperfusion was initiated. […] (Table 9).

[7] = EGF 500 μg, GHRP-6 100 μg, combination EGF 5 μg + GHRP-6 2 μg per rat i.p.
[8] = GHRP-6 0.1 μg/animal i.p. 10-30 min before stress, 20 mice per group

Substance	Glomerular Filtration Rate [1] [ml/min/100 g]	Renal Plasmatic Flow [1] [ml/min/100 g]	Urine output during the reperfusion period [1]	Renal failure / oliguria, result in words [1]	Nephroprotection / urine volume, result in words [2]	Percent of animals/group showing Cortical Hemorrhage [2]	Percent of animals/group showing Damaged Glomeruli [2]	Percent of animals/group showing Interstitial Damage [2]	Percent of animals/group showing Medullar Hemorrhage [2] [%]	Urine output during the reperfusion period [2]	Intestinal mucosal protection, result in words [3]	Final weight (body weight) [4]	Crypts depth [4] [μm]	No. of crypts in fission (×200) [4]	Villous height [4] [μm]	% Increase of body weight [4] [%]	No. of metaphases per crypt (×200) [4]	further results
EGF: Epidermal Growth Factor of natural, synthetic or recombinant origins	0.3 ± 0.15	1.2 ± 0.61	114 ± 51	attenuated the oliguria; also recorded: partially attenuate renal failure	negligible and contains hemoglobin	70%	80%	80%	80	83 ± 21	minimal protection	28.2 ± 3.3	48 ± 9	25 ± 8	118.7 ± 19	27	101 ± 35	Glomerular Filtration Rate [2]: 0.24 ± 0.15 ml/min/100 g; Renal Plasmatic Flow [2]: 0.6 ± 0.05 ml/min/100 g; DMA content [3, 7]: 0.4 ± 0.11 µg/cm; Luminal hemoglobin [3, 7]: 3.5 ± 1.02 g/dL; Mucosal Weight [3, 7]: 10.7 ± 4.5 g; Proteins Content [3, 7]: 1.08 ± 0.6 mg/cm; % of intestinal damage ([3]; i.p. 30 min before ischemia, EGF 500 μg, GHRP-6 100 μg, combination EGF 5 μg + GHRP-6 2 μg per rat, mean and SD): 78.7 ± 2.8%
H[dW]AW[dF]K-NH2 [GHRP-6]	0.46 ± 0.23	1.88 ± 0.8	208 ± 47	partially attenuate renal failure	Partial nephroprotection	40♦ percent	60♦ percent	30♦ percent	80	168 ± 33	partial protection	28.4 ± 1.8	40.8 ± 13	19 ± 6	99.2 ± 10	23	59 ± 12	Epithelial Erosion, number of animals [5, 8]: 6; Epithelial Erosion, percent of animals [5, 8]: 30%; Luminal Hemorrhage, number of animals [5, 8]: 0 (0%)*; Luminal Hemorrhage, percent of animals [5, 8]: 0 (0%)*; Mucosal Hemorrhage, number of animals [5, 8]: 0 (0%)*; Mucosal Hemorrhage, percent of animals [5, 8]: 0 (0%)*; Total of ulcers ([5]; GHRP-6 0.1 μg/animal i.p., 20 mice per group): 3*; Luminal hemoglobin ([5]; GHRP-6 0.1 μg/animal i.p., cyano metahemoglobin method): 0* g/dL; Increase of urine formation compared to saline treated animals ([1]; GHRP-6 50 μg/rat i.p.): 4 times; Percent of animals/group showing Tubular Damage [2]: 50♦ percent; Survival (%) [6]: 40%
